From patent US20100227827A1, “METHOD OF INCREASING TRYPTOPHAN AND NICOTINAMIDE LEVELS IN VIVO” (priority 2006, published 2010)

Test system: serum protein thiols
Assay: Serum protein thiols as in vivo anti-oxidant indicator
Design: species or system human
Conditions: for Increase in serum protein thiols (ratio): after to before (baseline)
Text: The following detailed description was designed to standardize the estimation of the in vivo level of serum protein thiols that have been used previously to estimate DNA repair capacity. When a blood sample is collected and the serum isolated, then the level of serum protein thiols is an estimate of the concentration between thiols and disulfides existing in protein structures that are in turn equilibrated to the existing oxidant environment in vivo. Thus, serum protein thiol analyses are an in vivo estimate of the antioxidant status of an individual that is in turn regulated by DNA repair.
A stock solution of the colorimetric agent 5,5′-dithio-bis-(2-nitrobenzoic acid (DTNB), was prepared using: 9.5 mg/ml solid DTNB, 0.1 M K2HPO4, and 17.5 mM EDTA. pH was adjusted to 7.5 and then diluted to desired volume. Working DTNB solution was prepared by diluting DTNB stock solution 1:50 with saline. Solutions of L-cysteine were prepared and a standard curve was constructed desirably be in the 0-100 μM range. Stock solutions were diluted as required and absorbance was measured using 96-well flat-bottom microtiter plate. 50 μL-cysteine solution with 200 μl working DTNB solution was placed per well. […]
A DTNB blank (50 μl saline+200 μl DTNB) was made. Absorbance values were made at 412 nm with a microtiter plate scanner spectrophotometer. The average of every concentration was calculated and DTNB blank was subtracted from every value. Using a plot of concentration (x-axis) vs. absorbance (y-axis) by comparison with standard cysteine solutions the cysteine concentration was determined.
A saturated ammonium sulfate solution was prepared. […] Absorbance in microtiter plate scanner set at 412 nm was measured making sure that bubbles in the well are avoided.
The average was calculated for the DTNB blank and the saline blank. […]
Then the corrected serum value was subtracted from the corrected sample value. This value was the final serum thiol value expressed as absorbance at […]. […]
Altogether this was a 20 fold dilution (4×5=20). […] Thiols were hereby measured in nmoles/0.72 ml.

Question: For `O=C(O)[C@]1(O)C[C@@H](O)[C@@H](O)[C@H](O)C1` [Aqua Bimini™, quinic acid ammonium chelate], which “Increase in serum protein thiols (ratio)” value (3000 mg/day for 36 days) is on record?
Answer: 1.26

Question: And the “Increase in serum protein thiols (ratio)” value (HL 1500 mg/day for 36 days)?
Answer: 1.22

Question: And the “reduced thiols (—SH) in serum proteins” value (supplementation 1500 or 3000 mg/day, treatment and follow-up versus baseline)?
Answer: significant increase
